Source: PMC9440176, “Novel benzylidene benzofuranone analogues as potential anticancer agents: design, synthesis and in vitro evaluation based on CDK2 inhibition assays” (3 Biotech, 2022)

Assays:
[1] = ABTS.+ radical scavenging assay
Protocol: The assay was performed in a 96-well plate by serial dilution method. A 2 mM ABTS^.+ working solution was prepared in a phosphate buffer (Zheleva-Dimitrova et al [2010]).To this, 200 μL of aqueous potassium per sulfate (70 mM) solution was added and the solution was incubated for 24 h in the dark at room temperature to develop a blue-green color. To 30 μL of ABTS^.+ working solution, 50 μL of different concentrations (3.9–1000 μM) of the test sample solution and 170 μL of phosphate buffer (pH-7.4) were added in a well. The plate was then incubated in the dark at room temperature for 10 min. Then absorbance was measured at 690 nm using Elisa reader. Quercetin and ascorbic acid were used as standards. The percentage scavenging of ABTS^.+ was calculated using the formula, (Control Absorbance–Test Absorbance)*100/(Control Absorbance) and the anti-oxidant activity was expressed in terms of IC50 value.

[2] = DPPH. free radical scavenging assay
Protocol: DPPH. assay was performed using 96-well plate by serial dilution method. The dilution of methanolic stock solution of the test compounds and standard anti-oxidants was carried out to obtain concentration in the range of 3.9–1000 µM. Quercetin and ascorbic acid were used as standards. To a 100 μL of this solution, 100 μL of 200 µM DPPH^. in methanolic solution was added. The experiment was done in triplicate and the plate was then incubated for 30 min in the dark and later the absorbance was measured at 517 nm using Elisa reader. The percentage DPPH^. Scavenging was calculated using the formula, (Control Absorbance–Test Absorbance)*100/(Control Absorbance). The anti-oxidant activity of the test compounds was expressed in terms of concentration required for 50 percentage inhibition (IC50) (Collins [2005]).

[3] = test system: MCF-7; assay: MTT cytotoxicity assay on MCF-7; assay type: cell-based; settings: 24 h, read-out: Inhibition of cell proliferation, IC50, MCF-7
Protocol: (§1) The monolayer cell culture was trypsinized and the cell count was adjusted to 5.0 × 10^5 cells/ml using respective media containing 10% FBS. To each well of the 96-well microtiter plate, 100 µL of the diluted cell suspension (50,000cells/well) was added. After 24 h, when a partial monolayer was formed, the supernatant was flicked off, the monolayer was then washed once again with the medium and 100 µL of different test concentrations of test drugs were added on to the partial monolayer in microtiter plates. The plates were then incubated at 37 °C for 24 h in 5% CO2 atmosphere. After incubation, the test solutions in the wells were discarded and 100 µL of MTT (5 mg/10 ml of MTT in PBS) was added to each well. The plates were then incubated for 4 h at 37 °C in 5% CO2 atmosphere. The supernatant was then removed and 100 µL of DMSO was added and the plates were gently shaken to solubilize the formed formazan. The absorbance was measured using a microtiter plate reader at a wavelength of 590 nm. The percentage growth inhibition was thus calculated using the following formula and the concentration of the test drug required to inhibit the cell growth by 50% (IC50) values is generated from the dose–response curves for each one of the cell lines (Meerloo et al. [2011]).
(§2) The test compounds were screened for their in vitro cytotoxicity by MTT assay against two cancer cell lines, namely MCF-7, HCT-116 and normal epithelial kidney cells (Vero). Doxorubicin was used as a reference standard.

[4] = test system: HCT 116; assay: MTT cytotoxicity assay on HCT 116; assay type: cell-based, Human; settings: 24 h, read-out: Inhibition of cell proliferation, IC50, HCT 116
Protocol: as §1, §2

[5] = biological target: CDK2/Cyclin A (Homo sapiens, UniProt P24941); assay: CDK2/cyclin A inhibitory assay, Z'-LYTE FRET kinase assay; assay type: biochemical; settings: concentration of 100 micro molar; 1000 ng/ml kinase, 1000 µM ATP
Text: Z’-LYTE® technology involves homogeneous assay design based on FRET and is a universal platform for both screening as well as profiling protein kinases. The assay uses a peptide substrate labeled with two different fluorophores, coumarin donor and fluorescein acceptor on each end. These two fluorophores make up a FRET pair, which allows the transfer of energy when both are present on the same molecule. The initial kinase reaction transfers the ϒ-phosphate of ATP to a tyrosine or serine/threonine residue on the substrate. In a secondary reaction, referred to as the development reaction, a site-specific protease recognizes and cleaves only non-phosphorylated peptide, while phosphorylated substrate remains uncleaved. […] Upon excitation of Coumarin at 400 nm, the FRET signal is measured as a ratio between the Coumarin donor emission at 445–460 nm and the fluorescein acceptor emission at 520–535 nm(Lebakken et al. [2007]).
Initial ten-fold and two-fold dilutions of Kinase and ATP concentrations were used to choose the optimal Kinase and ATP concentration based on the % Phosphorylation.
The assay was carried out according to the kit instructions (384 well format). Briefly, 5X kinase buffer [250 mM HEPES (pH 7.5), 50 mM MgCl2, 5 mM EGTA, 0.05% BRIJ-35] was diluted to 1X using distilled water. The phosphor peptide positive control (Z’-LYTE® Tyr 4 phospho-peptide) and the non-phosphorylated negative control (Z’-LYTE® Tyr 4 peptide) were then diluted to 1:500 with 1× kinase buffer to 2 μM. […] Working development solution was then made by diluting 12 μL of the provided stock solution with 388 μL of the provided development buffer. Aliquots (20 μL) of each peptide mixture were then added to the wells of a Corning 3914 solid white microplate in replicates of 8. The development reaction was initiated by the addition of 10 μL of working development-solution to all the wells. Further, the plates were allowed to incubate at room temperature for 60 min. Reactions were then stopped by the addition of 10 μL of stop solution (Jia et al. [2008]).
Reactions were quantitated using a Tecan Robotic Microplate Reader. Reader control, blank subtraction, ratio metric calculations and finally graph plotting were carried out using Gen5™ Data Analysis Software.
The CDK2/Cyclin A assay was carried out as per the manufacturer’s instruction using suitable controls and standard.
The inhibitory assay was carried out using the stock of 10 mM in DMSO. Samples were further serially diluted to obtain concentrations of 100 μM. The concentrations were chosen based on the IC50 values obtained in the MTT assay. A total of 23 analogues were selected for the assay based on their antiproliferative activity. Further, selected compounds were screened and tested against the target CDK2/Cyclin A, and their % phosphorylation and % inhibition were recorded.

[6] = test system: normal epithelial kidney cells (Vero); assay: MTT cytotoxicity assay on Vero; assay type: cell-based; settings: 24 h, read-out: Inhibition of cell proliferation, IC50, Vero
Protocol: as §1, §2

O=C1O[C@H]([C@@H](O)CO)C(O)=C1O [Ascorbic acid, reference compound]
IC50 [1]: 24.1 ± 1.23 µM
IC50 [2]: 18.5 ± 1.38 µM

CCN1CC=C(c2c(OC)cc(OC)c3c2O/C(=C\c2ccc4ccccc4c2)C3=O)CC1 [NEA1]
IC50 [1]: 120.9 ± 1.08 µM
IC50 [2]: 141 ± 13.9 µM
IC50 [3]: 57.9 µM
IC50 [4]: 68.6 µM
% inhibition on CDK2/cyclin A [5]: 32.676%

CCN1CC=C(c2c(OC)cc(OC)c3c2O/C(=C\c2ccccc2OC)C3=O)CC1 [NEA2]
IC50 [1]: 179 ± 6 µM
IC50 [2]: 220 ± 2.77 µM
IC50 [3]: 49.1 µM
IC50 [4]: 56.7 µM
% inhibition on CDK2/cyclin A [5]: 28.008%

CCN1CC=C(c2c(OC)cc(OC)c3c2O/C(=C\c2ccccc2Br)C3=O)CC1 [NEA3]
IC50 [1]: 67.1 ± 3.2 µM
IC50 [2]: 85.5 ± 6.87 µM
IC50 [3]: 28.1 µM
IC50 [4]: 33 µM
% inhibition on CDK2/cyclin A [5]: 35.559%

CCN1CC=C(c2c(OC)cc(OC)c3c2O/C(=C\c2ccc(Br)cc2)C3=O)CC1 [NEA4]
IC50 [1]: 71.67 ± 0.34 µM
IC50 [2]: 94.7 ± 4.9 µM
IC50 [3]: 82.7 µM
IC50 [4]: 93.6 µM
IC50 [6]: 188 µM
% inhibition on CDK2/cyclin A [5]: 27.236%

CCN1CC=C(c2c(OC)cc(OC)c3c2O/C(=C\c2ccc(OC)c(OC)c2)C3=O)CC1 [NEA5]
IC50 [1]: > 1000 µM
IC50 [2]: 339 ± 9.65 µM
IC50 [3]: 135 µM
IC50 [4]: 175 µM
IC50 [6]: 177 µM
% inhibition on CDK2/cyclin A [5]: 26.007%

CCN1CC=C(c2c(OC)cc(OC)c3c2O/C(=C\c2ccc(Cl)cc2)C3=O)CC1 [NEA6]
IC50 [1]: 198.18 ± 0.08 µM
IC50 [2]: 223 ± 4.87 µM
IC50 [3]: 95.4 µM
IC50 [4]: 124 µM
IC50 [6]: 192 µM
% inhibition on CDK2/cyclin A [5]: 25.879%

COc1cc(OC)c(C2=CCN(C(C)C)CC2)c2c1C(=O)/C(=C/c1ccc3ccccc3c1)O2 [NISOA1]
IC50 [1]: 112 ± 5.45 µM
IC50 [2]: 128 ± 17.9 µM
IC50 [3]: 46.8 µM
IC50 [4]: 63.2 µM
IC50 [6]: 172 µM
% inhibition on CDK2/cyclin A [5]: 38.987%

COc1cc(OC)c(C2=CCN(C(C)C)CC2)c2c1C(=O)/C(=C/c1ccccc1Br)O2 [NISOA2]
IC50 [1]: 234 ± 8.45 µM
IC50 [2]: 381 ± 28.1 µM
IC50 [3]: 103 µM
IC50 [4]: 125 µM
IC50 [6]: > 200 µM
% inhibition on CDK2/cyclin A [5]: 39.811%

COc1cc(OC)c(C2=CCN(C(C)C)CC2)c2c1C(=O)/C(=C/c1ccccc1C)O2 [NISOA3]
IC50 [1]: 187 ± 8.03 µM
IC50 [2]: 284 ± 12.3 µM
IC50 [3]: 70.4 µM
IC50 [4]: 89.5 µM
IC50 [6]: > 200 µM
% inhibition on CDK2/cyclin A [5]: 43.654%

COc1ccc(/C=C2\Oc3c(c(OC)cc(OC)c3C3=CCN(C(C)C)CC3)C2=O)cc1 [NISOA5]
IC50 [1]: 109 ± 9.23 µM
IC50 [2]: 129 ± 6.78 µM
IC50 [3]: 39.6 µM
IC50 [4]: 55.4 µM
IC50 [6]: 167 µM
% inhibition on CDK2/cyclin A [5]: 39.054%

COc1cc(OC)c(C2=CCN(C(C)C)CC2)c2c1C(=O)/C(=C/c1ccc(Cl)cc1)O2 [NISOA6]
IC50 [1]: 146 ± 14.8 µM
IC50 [2]: 183 ± 11.9 µM
IC50 [3]: 43.9 µM
IC50 [4]: 41.8 µM
IC50 [6]: 179 µM
% inhibition on CDK2/cyclin A [5]: 36.546%

COc1cc(OC)c(C2=CCN(C)CC2)c2c1C(=O)/C(=C/c1ccccc1)O2 [NMA1]
IC50 [1]: 131 ± 1.74 µM
IC50 [2]: 151 ± 3.54 µM
IC50 [3]: 67.8 µM
IC50 [4]: 86.9 µM
IC50 [6]: 187 µM
% inhibition on CDK2/cyclin A [5]: 27.654%

COc1cc(OC)c(C2=CCN(C)CC2)c2c1C(=O)/C(=C/c1ccccc1C)O2 [NMA3]
IC50 [1]: 89.8 ± 1.48 µM
IC50 [2]: 103 ± 7.78 µM
IC50 [3]: 62.7 µM
IC50 [4]: 89 µM
IC50 [6]: 188 µM
% inhibition on CDK2/cyclin A [5]: 24.987%

COc1cc(OC)c(C2=CCN(C)CC2)c2c1C(=O)/C(=C/c1ccc(N(C)C)cc1)O2 [NMA4]
IC50 [1]: 137 ± 6.23 µM
IC50 [2]: 154 ± 12.7 µM
IC50 [3]: 63.8 µM
IC50 [4]: 89.5 µM
IC50 [6]: > 200 µM
% inhibition on CDK2/cyclin A [5]: 29.543%

COc1ccc(/C=C2\Oc3c(c(OC)cc(OC)c3C3=CCN(C)CC3)C2=O)cc1 [NMA5]
IC50 [1]: 87 ± 0.18 µM
IC50 [2]: 98.2 ± 1.99 µM
IC50 [3]: 155 µM
IC50 [4]: 139 µM
IC50 [6]: > 200 µM
% inhibition on CDK2/cyclin A [5]: 25.098%

COc1ccc(/C=C2\Oc3c(c(OC)cc(OC)c3C3=CCN(C)CC3)C2=O)cc1OC [NMA6]
IC50 [1]: 200 ± 4.43 µM
IC50 [2]: 258 ± 8.83 µM
IC50 [3]: 98.5 µM
IC50 [4]: 123 µM
IC50 [6]: > 200 µM
% inhibition on CDK2/cyclin A [5]: 26.113%

CCCN1CC=C(c2c(OC)cc(OC)c3c2O/C(=C\c2ccccc2Br)C3=O)CC1 [NPA3]
IC50 [1]: 123 ± 4.55 µM
IC50 [2]: 159 ± 13.9 µM
IC50 [3]: 53.9 µM
IC50 [4]: 67.9 µM
% inhibition on CDK2/cyclin A [5]: 17.045%

O=c1c(O)c(-c2ccc(O)c(O)c2)oc2cc(O)cc(O)c12 [Quercetin, reference compound]
IC50 [1]: 39 ± 0.58 µM
IC50 [2]: 31.42 ± 0.09 µM
